Patent US12595243B2, “Modulators of extracellular signal-regulated kinase” (GEN1E LIFESCIENCES INC., priority 2023, dated 2026)
Like-named read-outs stand apart in the source and are kept apart here.

How the values were obtained:
[1] = test system: melanoma cell line RPMI-7951; test: Cytotoxicity in cancer cell lines (CellTiter-Glo), RPMI-7951; format: cell-based; conditions: Homo sapiens
Text: (§1) All cells were obtained from ATCC. […] Normocin® was obtained from InvivoGen. FBS was obtained from Gibco. […] All test compounds were synthesized as described herein.

[2] = test system: melanoma cell line Sk-Mel-28; test: Cytotoxicity in cancer cell lines (CellTiter-Glo), Sk-Mel-28; format: cell-based; conditions: Homo sapiens
Text: as §1

[3] = test system: glioblastoma cell line U87; test: Cytotoxicity in cancer cell lines (CellTiter-Glo), U87; format: cell-based; conditions: Homo sapiens, U-87 MG
Text: as §1

[4] = test system: immortalized human T lymphocyte Jurkat cells; test: Cytotoxicity in cancer cell lines (CellTiter-Glo), Jurkat; format: cell-based
Text: as §1

melanoma cell line A375 = test: Cytotoxicity in cancer cell lines (CellTiter-Glo), A375; conditions: Homo sapiens, A375 cells, mean of three tests
Description: The cytotoxicity of test compounds was determined for several cell lines including melanoma cell line RPMI-7951, melanoma cell line Sk-Mel-28, melanoma cell line A375, melanoma cell line U87, glioblastoma cell line U87, immortalized human T lymphocyte Jurkat cells, and human pancreatic carcinoma cell line PL-45.
All cells were obtained from ATCC. RPMI, DMEM, EMEM and pen/strep were obtained from Invitrogen. Normocin® was obtained from InvivoGen. FBS was obtained from Gibco. Cell viability reagent Cell-titer glow was obtained from Promega.
The growth media for A375 and PL45 cells was DMEM supplemented with antibiotic/anti-mycotic pen/strep and Normocin® (InvivoGen) and 10% FBS.
Ten (10) mM solutions of each of the test compounds were prepared in dimethyl sulfoxide (DMSO) and serially diluted in DMSO to provide solutions having concentrations of the test compound of 3 mM, 1 mM, 0.3 mM, 0.1 mM, 0.03 mM, or 0.01 mM. Forty (40) μL of each of the solutions were further diluted to 400 μL in the cell specific complete media to provide 10× stock solutions having a 1 mM, 300 μM, 100 μM, 30 μM, 10 μM, 3 μM, 1 μM, or 0.3 μM of the test compound. Ten (10) μL of DMSO was diluted to 400 μL in the complete media and used as the 0 μM control.
For the cytotoxicity studies, all cells were grown in their respective complete media. Confluent cells were harvested and plated into two 96-well tissue culture treated plates at 5,000-8,000 cells/wells in 180 μL media. Twenty (20) μL of each of the 10× stock solutions were added to the wells and mixed.
After incubating for 24 h, media was aspirated out and replaced with 180 μL/well of the fresh media and 20 μL/well of the 10× stock solutions in duplicate wells in duplicate plates (Plates 1 and 2; and 3 and 4) and in quadruplicate wells (Plate 5) were added, mixed and cultured for 48 hours. The final concentrations of each test compound were 100 μM, 30 μM, 10 μM, 3 μM, 1 μM, 0.3 μM, 0.1 μM and 0 μM.
After 48 hours and/or 72 hours following addition of the test compounds, one plate each was removed from the incubator, the media aspirated out, 100 μL of CellTiter-Glo® reagent added to each well, and the resulting luminescent signals measured using a VICTOR-2® plate reader.
The data from the plate reader were exported to GraphPad (Prism) and data processed using non-linear regression and EC50 value determined.

[5] = RPMI-7951, 48 h, read-out: Cytotoxicity EC50 at 48 hours, RPMI
[6] = RPMI-7951, 72 h, read-out: Cytotoxicity EC50 at 72 hours, RPMI
[7] = SK-MEL-28, 48 h, read-out: Cytotoxicity EC50 at 48 hours, Sk mel
[8] = SK-MEL-28, 72 h, read-out: Cytotoxicity EC50 at 72 hours, Sk mel
[9] = 48 h, read-out: Cytotoxicity EC50 at 48 hours, U87
[10] = 72 h, read-out: Cytotoxicity EC50 at 72 hours, U87
[11] = Jurkat, 48 h, read-out: Cytotoxicity EC50 at 48 hours, Jurkat
[12] = Jurkat, 72 h, read-out: Cytotoxicity EC50 at 72 hours, Jurkat
[13] = A-375, 48 h, read-out: Cytotoxicity EC50 at 48 hours, A375, 48 h
[14] = A-375, 72 h, read-out: Cytotoxicity EC50 at 72 hours, A375, 72 h
[15] = SK-MEL-28, 48 h, 48 h, Sk-Mel-28 cells, mean of three tests, read-out: Cytotoxicity EC50 at 48 hours, Sk mel
[16] = SK-MEL-28, 72 h, 72 h, Sk-Mel-28 cells, mean of three tests, read-out: Cytotoxicity EC50 at 72 hours, Sk mel
[17] = 48 h, U87 cells, mean of three tests, read-out: Cytotoxicity EC50 at 48 hours, U87
[18] = 72 h, U87 cells, mean of three tests, read-out: Cytotoxicity EC50 at 72 hours, U87
[19] = 48 h, Jurkat cells, mean of three tests, read-out: Cytotoxicity EC50 at 48 hours, Jurkat
[20] = 72 h, Jurkat cells, mean of three tests, read-out: Cytotoxicity EC50 at 72 hours, Jurkat

| SMILES | EC50 [1, 5] [µM] | EC50 [1, 6] [µM] | EC50 [2, 7] [µM] | EC50 [2, 8] [µM] | EC50 [3, 9] [µM] | EC50 [3, 10] [µM] | EC50 [4, 11] [µM] | EC50 [4, 12] [µM] | EC50 (melanoma cell line A375; [13]) [µM] | EC50 (melanoma cell line A375; [14]) [µM] | EC50 [2, 15] [µM] | EC50 [2, 16] [µM] | EC50 [3, 17] [µM] | EC50 [3, 18] [µM] | EC50 [4, 19] [µM] | EC50 [4, 20] [µM] |
| --- | --- | --- | --- | --- | --- | --- | --- | --- | --- | --- | --- | --- | --- | --- | --- | --- |
| O=C(Nc1ccc2ccccc2c1)OC1C=CS(=O)(=O)C1 (stereo not drawn) [(10), 1,1-dioxido-2,3-dihydrothiophen-3-yl naphthalen-2-ylcarbamate] | 39 | 28 | 38 | 25 | > 100 | 31 | > 100 | 8 | 31 | 46 |  |  |  |  |  |  |
| O=C(COC1C=CS(=O)(=O)C1)c1ccc(-c2ccccc2)cc1 (stereo not drawn) [(9), 1-([1,1′-biphenyl]-4-yl)-2-((1,1-dioxido-2,3-dihydrothiophen-3-yl)oxy)ethan-1-one] | 11 | 10 | 71 | 12 | 32 | 28 | 22 | 9 | 19 | 47 |  |  |  |  |  |  |
| O=S1(=O)C=CC(OCc2ccc(Oc3ccccc3)cc2)C1 (stereo not drawn) [(6), 3-((4-phenoxybenzyl)oxy)-2,3-dihydrothiophene 1,1-dioxide] | 40 | 24 |  |  |  |  |  |  | 24 | 19 | 69 | 48 | > 100 | 46 | > 100 | > 100 |
| O=C(Nc1ccc2ccccc2c1)NC1C=CS(=O)(=O)C1 (stereo not drawn) [(12), 1-(1,1-dioxido-2,3-dihydrothiophen-3-yl)-3-(naphthalen-2-yl)urea] | 100 |  | > 100 |  | > 100 |  | > 100 |  | > 100 |  |  |  |  |  |  |  |
| O=C(NC1C=CS(=O)(=O)C1)c1ccc2ccccc2c1 (stereo not drawn) [(14), N-(1,1-dioxido-2,3-dihydrothiophen-3-yl)-2-naphthamide] | 12 | 9.4 |  |  |  |  |  |  | 86 | 70 | > 100 | 100 | > 100 |  | 10 |  |
| CN(C1C=CS(=O)(=O)C1)S(=O)(=O)c1ccc2ccccc2c1 (stereo not drawn) [(2), N-(1,1-dioxido-2,3-dihydrothiophen-3-yl)-N-methylnaphthalene-2-sulfonamide] | 85 |  |  |  |  |  |  |  | > 100 |  | > 100 |  | > 100 |  | 53 |  |
| CN(C1CCS(=O)(=O)C1)S(=O)(=O)c1ccc2ccccc2c1 (stereo not drawn) [(16)] | > 100 | > 100 |  |  |  |  |  |  | > 100 | 100 | > 100 | > 100 | > 100 | > 100 | 9 | 8 |
| O=S1(=O)C=CC(OCCc2ccc3ccccc3c2)C1 (stereo not drawn) [(7), 3-(2-(naphthalen-2-yl)ethoxy)-2,3-dihydrothiophene 1,1-dioxide] | 19 |  |  |  |  |  |  |  | 29 |  | 95 |  |  |  | 10 |  |
| O=S1(=O)C=CC(NS(=O)(=O)c2ccc3ccccc3c2)C1 (stereo not drawn) [(3), N-(1,1-dioxido-2,3-dihydrothiophen-3-yl)naphthalene-2-sulfonamide] | 19 |  |  |  |  |  |  |  | 14 |  | > 100 |  | 100 |  | 6 |  |
| O=C(Nc1ccc(-c2ccccc2)cc1)NC1C=CS(=O)(=O)C1 (stereo not drawn) [(13), 1-([1,1′-biphenyl]-4-yl)-3-(1,1-dioxido-2,3-dihydrothiophen-3-yl)urea] | > 100 |  |  |  |  |  |  |  | > 100 |  | > 100 |  | 1 |  | 86 |  |
| O=C(Nc1ccc(-c2ccccc2)cc1)OC1C=CS(=O)(=O)C1 (stereo not drawn) [(11), 1,1-dioxido-2,3-dihydrothiophen-3-yl [1,1′-biphenyl]-4-ylcarbamate] | 25 | 12 | 66 | 62 | 3 |  | 10 |  |  | 97 |  |  |  |  |  |  |
| CCOS(=O)(=O)c1ccc2ccccc2c1 [(31), ethyl naphthalene-2-sulfonate] |  |  |  |  |  |  |  |  | > 100 |  |  |  |  |  |  |  |
| CC(C)OS(=O)(=O)c1ccc2ccccc2c1 [(32), isopropyl naphthalene-2-sulfonate] |  |  |  |  |  |  |  |  | > 100 |  |  |  |  |  |  |  |
